Target: T1, human TAS1R2-I234V (subunit alone) (Homo sapiens, UniProt Q8TE23, I234V)
T1 construct: expressed in transfected cells; host or cells: HEK293T-Gα16gust44
T1 sequence (Q8TE23 20-839 I234V): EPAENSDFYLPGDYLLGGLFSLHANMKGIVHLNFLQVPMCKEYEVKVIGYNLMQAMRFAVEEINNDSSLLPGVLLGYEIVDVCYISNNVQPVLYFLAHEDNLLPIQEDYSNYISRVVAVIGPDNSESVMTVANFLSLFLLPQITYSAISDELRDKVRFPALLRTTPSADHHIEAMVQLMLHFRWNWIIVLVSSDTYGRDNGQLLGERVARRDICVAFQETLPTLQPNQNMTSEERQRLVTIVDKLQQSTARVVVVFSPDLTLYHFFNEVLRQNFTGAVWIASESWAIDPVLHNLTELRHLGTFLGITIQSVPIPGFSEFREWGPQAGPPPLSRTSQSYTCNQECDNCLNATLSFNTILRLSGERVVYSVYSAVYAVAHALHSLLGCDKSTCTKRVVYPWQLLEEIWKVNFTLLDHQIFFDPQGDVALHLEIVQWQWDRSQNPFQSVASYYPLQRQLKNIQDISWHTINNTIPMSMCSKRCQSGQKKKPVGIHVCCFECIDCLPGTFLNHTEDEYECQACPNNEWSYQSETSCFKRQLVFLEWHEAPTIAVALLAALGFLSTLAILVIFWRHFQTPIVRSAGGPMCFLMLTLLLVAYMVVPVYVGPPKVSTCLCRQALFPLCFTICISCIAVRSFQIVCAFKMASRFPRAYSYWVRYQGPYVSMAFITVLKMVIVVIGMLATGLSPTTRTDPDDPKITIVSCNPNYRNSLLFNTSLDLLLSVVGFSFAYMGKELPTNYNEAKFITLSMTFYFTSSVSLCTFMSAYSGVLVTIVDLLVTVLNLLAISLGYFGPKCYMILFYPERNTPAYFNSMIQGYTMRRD
Assay: Calcium mobilisation assay, TAS1R2-I234V subunit alone
Assay type: cell-based
Excerpt: The coding sequences for TAS1R2 and TAS1R3 were commercially synthesised, and the human codon was optimised for expression in human cells. The coding sequences of human TAS1R2 and TAS1R3 were subcloned and inserted into the mammalian expression vectors pcDNA6/myc-HisA and pcDNA4/myc-HisA (Invitrogen; Thermo Fisher Scientific; Illkirch, France) between the EcoRI and NotI restriction sites, generating the plasmids pcDNA6-TAS1R2 and pcDNA4-TAS1R3, respectively. To increase protein expression in mammalian cells, an upstream start codon was used, which was a sequence called MAX, corresponding to the QBI SP163 element also described in pcDNA4-HisMax (Invitrogen; Thermo Fisher Scientific; Illkirch, France). To measure the expression level of the receptor by immunohistochemistry, we used the FLAG sequence ([…]) in the C-terminal position, which encodes the FLAG tag epitope. […]
The HEK293T cells were kindly provided by Jay P. Slack (Givaudan Flavors Corporation; Cincinnati, OH, USA). […] The fluorescence intensity was measured for 90 s (excitation 488 nm, emission 510 nm) in an automated fluorometric FlexStation®3 Multi-Mode microplate reader (Molecular Devices; San Jose, CA, USA). […] The Ca^2+ changes were expressed as fractional changes in fluorescent light intensity: ΔF/F = (F − F0)/F0, where F was the fluorescent light intensity at each point, and F0 was the value of emitted fluorescent light prior to stimulus application. To calculate dose–response relationships, the changes in fluorescence upon stimulus application were averaged, mock-subtracted and baseline-corrected. […] The half-maximal effective concentrations (EC50 values) and maximal signal amplitudes were calculated using SigmaPlot software (version 15.0) (Systat Software; San Jose, CA, USA).
For in vitro calcium mobilisation assay performed on hTAS1R2-SNPs, hTAS1R3-SNPs and mTAS1R3-I60T, 6 to 7 concentrations were tested for each sweet compound, plus buffer alone. All concentration–receptor combinations were measured in duplicate, and each experiment was repeated at least 4 times (8 wells/concentration). […]

## C=C(C)[C@@H]1CC=C(/C=N/O)CC1 [Perillartine, perillartine]
  EC50: 311 ± 24.6 µM
  R1 = Variant EC50/WT EC50: 3.5
Maximal signal amplitude
  Max ΔF/F0: 0.29 ± 0.01

Source: article PMC11945486, “TAS1R2/TAS1R3 Single-Nucleotide Polymorphisms Affect Sweet Taste Receptor Activation by Sweeteners: The SWEET Project” (Nutrients, 2025)
